US6642226B2, “Substituted phenyl-piperidine methanone compounds” (Hoffman-La Roche Inc., priority 2001, dated 2003)
In brackets after ≈: the same amount, converted by molar mass.

Legend:
human NK1 receptor = target: T1, human NK1 receptor (Homo sapiens, UniProt P25103); experiment: NK1 receptor binding, [3H]substance P displacement; settings: for Ki: read-out: pKi (affinity to the NK-1 receptor) (converted)
T1 construct: expressed in transfected cells; host or cells: CHO cells, Semliki virus expression system; membrane suspension
Experimental: The affinity of test compounds for the NK1 receptor was evaluated at human NK1 receptors in CHO cells infected with the human NK1 receptor (using the Semliki virus expression system) and radiolabelled with [^3H]substance P (final concentration 0.6 nM). Binding assays were performed in HEPES buffer (50 mM, pH 7.4) containing BSA (0.04%) leupeptin (8 μg/ml), MnCl2 (3 mM) and phosphoramidon (2 μM). Binding assays consisted of 250 μl of membrane suspension (1.25×10^5 cells/assay tube), […] of buffer of displacing agent and 125 μl of [^3H]substance P. Displacement curves were determined with at least seven concentrations of the compound. The assay tubes were incubated for 60 min at room temperature after which time the tube contents were rapidly filtered under vacuum through GF/C filters presoaked for 60 min with PEI (0.3%) with 2×2 ml washes of HEPES buffer (50 mM, pH 7.4). The radioactivity retained on the filters was measured by scintillation counting. All assays were performed in triplicate in at least 2 separate experiments.

[1] = Solubility at pH 6.5 and pH 4.3 (water-solubility); settings: water (aqueous medium; buffer not named)
[2] = human NK1 receptors in CHO cells, [3H]substance P 0.6 nM

T1 sequence (P25103 whole entry): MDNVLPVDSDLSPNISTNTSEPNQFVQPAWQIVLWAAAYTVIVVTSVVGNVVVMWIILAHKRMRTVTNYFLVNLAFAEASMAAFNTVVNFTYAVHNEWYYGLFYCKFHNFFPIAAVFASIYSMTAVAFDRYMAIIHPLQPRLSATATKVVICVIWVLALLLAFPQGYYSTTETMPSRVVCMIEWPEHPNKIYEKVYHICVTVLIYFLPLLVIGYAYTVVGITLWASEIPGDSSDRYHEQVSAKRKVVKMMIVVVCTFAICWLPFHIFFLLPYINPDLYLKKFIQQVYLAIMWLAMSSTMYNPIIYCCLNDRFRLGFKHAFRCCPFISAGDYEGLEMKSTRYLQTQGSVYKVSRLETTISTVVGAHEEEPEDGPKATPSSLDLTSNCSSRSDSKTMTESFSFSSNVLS

Ki (human NK1 receptor; [2])	solubility ([1]; pH 4.3, aqueous buffer)	solubility ([1]; pH 6.5, aqueous buffer)	SMILES	further results
1.26 nM	> 7500 µg/mL	–	O=C(c1cc(C(F)(F)F)cc(C(F)(F)F)c1)N1CC[C@H](N2CCN(CC3CC3)CC2)[C@H](c2ccccc2)C1 (racemic) [Example 36, Rac-cis-(3,5-Bis-trifluoromethyl-phenyl)-[4-(4-cyclopropylmethyl-piperazin-1-yl)-3-phenyl-piperidin-1-yl]-methanone]	–
2.14 nM	1000 µg/mL (≈ 1870 µM)	780 µg/mL (≈ 1460 µM)	O=C(c1cc(C(F)(F)F)cc(C(F)(F)F)c1)N1CCC(N2CCC(O)CC2)C(c2ccc(Cl)cc2)C1 (racemic) [Example 63, Rac-cis-(3,5-Bis-trifluoromethyl-phenyl)-[3′-(4-chloro-phenyl)-4-hydroxy-[1,4′]bipiperidinyl-1′-yl]-methanone]	–
–	–	–	Cc1ccc(C2CN(C(=O)c3cc(C(F)(F)F)cc(C(F)(F)F)c3)CCC2N2CCN(CC3CC3)CC2)cc1 (single isomer, unassigned; (-)) [Example 102, (−)-4-(3,5-Bis-trifluoromethyl-phenyl)-[4-(4-cyclopropylmethyl-piperazin-1-yl)-3-p-tolyl-piperidin-1-yl]-methanone]	Solubility at pH 4.3 (pH 4.3): 5.5 mg/mL; Solubility at pH 6.5 (pH 6.5): 0.43 mg/mL; pKi (affinity to the NK-1 receptor) (human NK1 receptor; [2]): 9.28
3.16 nM	–	–	O=C(c1cc(C(F)(F)F)cc(C(F)(F)F)c1)N1CC[C@H](N2CCN(C(=O)C(F)(F)F)CC2)[C@H](c2ccc(Cl)cc2)C1 (racemic) [Example 106, Rac-cis-1-{4-[1-(3,5-Bis-trifluoromethyl-benzoyl)-3-(4-chloro-phenyl)-piperidin-4-yl]-piperazin-1-yl}-2,2,2-trifluoro-ethanone]	–
–	> 3500 µg/mL	–	O=C(c1cc(C(F)(F)F)cc(C(F)(F)F)c1)N1CC[C@H](N2CCNCC2)[C@H](c2ccccc2)C1 (racemic) [Example 34, Rac-cis-(3,5-Bis-trifluoromethyl-phenyl)-(3-phenyl-4-piperazin-1-yl-piperidin-1-yl)-methanone]	–
–	–	–	CC(C)(C)OC(=O)N1CCN(C2CCN(C(=O)c3cc(C(F)(F)F)cc(C(F)(F)F)c3)CC2c2ccccc2)CC1 (single isomer, unassigned; (-)) [Example 101, (−)-4-[1-(3,5-Bis-trifluoromethyl-benzoyl)-3-phenyl-piperidin-4-yl]-piperazine-1-carboxylic Acid Tert-Butyl Ester]	relative activity of enantiomer in the test for NK-1 binding (human NK1 receptor; enantiomer fraction from Chiralpak AD separation of the racemate): more active enantiomer
–	2400 µg/mL (≈ 4640 µM)	1000 µg/mL (≈ 1930 µM)	CN1CCN([C@H]2CCN(C(=O)c3cc(C(F)(F)F)cc(C(F)(F)F)c3)C[C@H]2c2ccc(F)cc2)CC1 (racemic) [Example 45, Rac-cis-(3,5-Bis-trifluoromethyl-phenyl)-[3-(4-fluoro-phenyl)-4-(4-methyl-piperazin-1-yl)-piperidin-1-yl]-methanone]	–
3.09 nM	> 8400 µg/mL	910 µg/mL (≈ 1820 µM)	CN1CCN([C@H]2CCN(C(=O)c3cc(C(F)(F)F)cc(C(F)(F)F)c3)C[C@H]2c2ccccc2)CC1 (racemic) [Example 27, Rac-cis-(3,5-Bis-trifluoromethyl-phenyl)-[4-(4-methyl-piperazin-1-yl)-3-phenyl-piperidin-1-yl]-methanone]	–
0.912 nM	–	–	O=C(c1cc(C(F)(F)F)cc(C(F)(F)F)c1)N1CCC(N2CCN(CCO)CC2)C(c2ccccc2)C1 (single isomer, unassigned; (-)) [Example 115, (−)-(3,5-Bis-trifluoromethyl-phenyl)-{4-[4-(2-hydroxy-ethyl)-piperazin-1-yl]-3-phenyl-piperidin-1-yl}-methanone]	–
0.363 nM	–	–	O=C(c1cc(C(F)(F)F)cc(C(F)(F)F)c1)N1CCC(N2CCN(CC3CC3)CC2)C(c2ccccc2)C1 (single isomer, unassigned; (-)) [Example 114, (−)-(3,5-Bis-trifluoromethyl-phenyl)-[4-(4-cyclopropylmethyl-piperazin-1-yl)-3-phenyl-piperidin-1-yl]-methanone]	–
